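A five-concentration, 48-hour dose response in 96-well plates underlies each endpoint, interpolated linearly between surrounding concentrations. GI50 is the concentration that inhibits growth by half.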 Active and inactive are the calls of the source. No stated cut-off is given here; in the data, active = GI50 up to about 1.1 µM and inactive = higher.
What was measured:
Test in all cases: growth of human tumour cells (NCI), 48 h
[1] = test system: SW-620
[2] = test system: CAKI-1
[3] = test system: DU-145
[4] = test system: NCI-H522
[5] = test system: HT-29
[6] = test system: Malme-3M
[7] = test system: OVCAR-4
[8] = test system: SK-MEL-2
[9] = test system: A498
[10] = test system: UACC-62
[11] = test system: Hs-578T
[12] = test system: A549
[13] = test system: EKVX
[14] = test system: MCF7
[15] = test system: NCI/ADR-RES
[16] = test system: KM12
[17] = test system: IGROV-1
[18] = test system: HOP-92
[19] = test system: NCI-H226
[20] = test system: UO-31

Measured: GI50

O=c1c2ccccc2nc2n1C(c1ccc([N+](=O)[O-])cc1)C2(c1ccccc1)c1ccccc1 (configuration not stated)
inactive: [1] > 100 µM | [2] > 100 µM | [3] > 100 µM | [4] > 100 µM | [5] 9.98 µM | [6] > 100 µM | [7] > 100 µM | [8] > 100 µM | [9] > 100 µM | [10] > 100 µM | [11] 66.2 µM | [12] 12.9 µM | [13] > 100 µM | [14] 54.6 µM | [15] > 100 µM | [16] > 100 µM | [17] > 100 µM | [18] > 100 µM

CC1(C)C2CC1C(/C=N\OCC(=O)O)=CC2=O (configuration not stated)
inactive: [1] > 100 µM | [2] > 100 µM | [3] > 100 µM | [5] > 100 µM | [6] > 100 µM | [7] > 100 µM | [19] > 100 µM | [20] > 100 µM | [8] > 100 µM | [9] > 100 µM | [10] > 100 µM | [11] > 100 µM | [12] > 100 µM | [13] > 100 µM | [14] > 100 µM | [15] > 100 µM | [16] > 100 µM | [17] > 100 µM | [18] > 100 µM

COc1ccc(C(=O)/C=C/c2ccc(OCC(=N)N)cc2)cc1
inactive: [1] 3.7 µM | [2] > 10 µM | [3] 12.8 µM | [4] > 10 µM | [5] 15.3 µM | [6] 17.9 µM | [7] 14.7 µM | [19] 18.8 µM | [20] 19.8 µM | [9] 13.6 µM | [10] 15.6 µM | [11] 16.4 µM | [12] 17.7 µM | [13] 16.4 µM | [14] 13.2 µM | [15] 28.2 µM | [16] 12.6 µM | [17] 18.2 µM | [18] 15.2 µM

c1ccc2c(c1)c1c(c3ccccc32)CN2CCCC2C1 (configuration not stated)
inactive: [1] 2.45 µM | [2] 4.07 µM | [3] 4.17 µM | [4] 2.57 µM | [5] 3.72 µM | [6] 2.45 µM | [7] 3.3 µM | [20] 2.77 µM | [8] 2.3 µM | [9] 3.72 µM | [10] 2.33 µM | [11] 2.38 µM | [12] 2.96 µM | [13] 4.74 µM | [14] 2.44 µM | [15] 3.94 µM | [16] 4.2 µM | [17] 2.7 µM | [18] 2.84 µM

O=c1[nH]c(N/N=C\C(O)C(O)C(O)C(O)CO)nc2ccccc12 (configuration not stated)
inactive: [1] > 100 µM | [2] > 100 µM | [3] > 100 µM | [5] > 100 µM | [19] > 100 µM | [20] > 100 µM | [8] > 100 µM | [9] > 100 µM | [10] > 100 µM | [11] > 100 µM | [12] > 100 µM | [13] > 100 µM | [14] > 100 µM | [15] > 100 µM | [16] > 100 µM | [17] > 100 µM | [18] > 100 µM

C=C1C(=O)O[C@@H]2/C=C(/C)[C@@H](OC(C)=O)C/C=C(\C)C(O)[C@@H](OC(=O)/C(C)=C\C)C12 (some centres not stated)
inactive: [1] 16.5 µM | [2] 24.2 µM | [3] 43.7 µM | [4] 13.4 µM | [5] 20.6 µM | [7] 41.6 µM | [19] > 100 µM | [8] 27.6 µM | [9] 51.3 µM | [10] 26.4 µM | [11] 56.2 µM | [12] 95.7 µM | [13] 32.1 µM | [14] 27.6 µM | [15] 32.7 µM | [16] 68.7 µM | [17] 50.7 µM | [18] 22.1 µM

Cc1c(C#N)c2ccccc2c2nc3ccccc3n12
inactive: [1] 81.3 µM | [2] 67.9 µM | [3] 43.2 µM | [4] 16.4 µM | [7] 38.4 µM | [19] > 100 µM | [20] 11.7 µM | [8] > 100 µM | [9] > 100 µM | [10] > 100 µM | [11] 63 µM | [12] 93.1 µM | [13] > 100 µM | [14] 50.9 µM | [15] > 100 µM | [16] > 100 µM | [17] 31.9 µM | [18] > 100 µM

C#CCOC(=O)c1ccccc1O
inactive: [1] > 100 µM | [2] > 100 µM | [3] > 100 µM | [4] > 100 µM | [7] > 100 µM | [19] > 100 µM | [20] > 100 µM | [8] > 100 µM | [9] > 100 µM | [10] > 100 µM | [11] > 100 µM | [13] > 100 µM | [14] > 100 µM | [15] > 100 µM | [16] > 100 µM | [17] > 100 µM | [18] > 100 µM

CC1(C)CC23CC(C)(C)c4cccc(c42)OCc2ccc4ccc5ccc(nc5c4n2)COc2cccc1c23
inactive: [1] > 50 µM | [2] > 50 µM | [3] > 50 µM | [4] > 50 µM | [5] > 50 µM | [7] > 50 µM | [19] > 50 µM | [20] > 50 µM | [8] > 50 µM | [9] > 50 µM | [10] > 50 µM | [11] > 50 µM | [12] > 50 µM | [13] > 50 µM | [14] > 50 µM | [15] > 50 µM | [16] > 50 µM | [17] > 50 µM | [18] > 50 µM

Oc1c(Cl)cc(CN(Cc2cc(Cl)c(O)c(Cl)c2)C2CCCCC2)cc1Cl
inactive: [1] > 100 µM | [2] > 100 µM | [3] > 100 µM | [4] > 100 µM | [5] > 100 µM | [6] > 100 µM | [7] > 100 µM | [20] > 100 µM | [8] > 100 µM | [9] > 100 µM | [10] > 100 µM | [11] > 100 µM | [12] > 100 µM | [13] > 100 µM | [14] > 100 µM | [15] > 100 µM | [16] > 100 µM | [17] > 100 µM | [18] > 100 µM

N/C(=N\c1ccc(Cl)cc1)NS(=O)(=O)c1cccc2nsnc12
inactive: [1] 66.1 µM | [3] 82.2 µM | [4] 5.92 µM | [5] 55.6 µM | [6] 18 µM | [7] 15.2 µM | [19] 68.7 µM | [20] 28.4 µM | [8] 11.9 µM | [9] 15.6 µM | [10] 17 µM | [11] 20.9 µM | [12] 52.1 µM | [13] 19.7 µM | [14] 36.2 µM | [15] 31.3 µM | [16] 34.3 µM | [17] 23.7 µM | [18] 16.1 µM
